# Assay results reported in US8377913B2, “Vitamin D receptor activators and methods of making” (AbbVie Inc., priority 2007, dated 2013).
# pEC50: −log10 of the molar value.
# How the values were obtained:
# [1] = tested on: Human promyelocytic leukemia (HL60) cells; assay: HL-60 Differentiation; type: cell-based; details: HL-60, 96 h, four days incubation, NBT, absorbance 570 nm
# Experimental: Human promyelocytic leukemia (HL60) cells were obtained from the American Type Culture Collection (ATCC Cat. # CCL-240, Manassas, Va.). Cells were maintained in RPMI 1640 medium (commercially available from Invitrogen, Carlsbad, Calif.) containing 10% fetal bovine serum (commercially available from Invitrogen, Carlsbad, Calif.) at 37° C. with 5% CO2. Cells were passaged weekly and were not allowed to become >90% confluent. For the assay, cells were plated at 5×10^5 cells per well in 200 uL media. Test compounds were diluted in media in concentrations between 10^−6-10^−10 M and then added to the appropriate wells. Cells were then incubated for four days at 37° C. in 5% CO2 atmosphere. After incubation, media was aspirated from each well and 75 uL of NBT solution (nitroblue tetrazolinium: 200 ng/mL PMA (phorbol 12-myrystate 13-acetate) and 2 mg/ml NBT (nitroblue tetrazolium) in distilled H2O) was added to each well followed by further incubation for 2 hours at 37° C. Following incubation, 150 uL lysis buffer (225 mL dimethylformamide, 67.5 g SDS). PMA stock solution (2 mg/ml in ethanol) was added to each well and the plate was allowed to sit at room temperature for 4 hours. HL-60 cell differentiation was assayed, Effect of each compound on cell growth was examined as a function of time; absorbance in each well was measured at 570 nm.
# [2] = tested on: 5/6 NX rats; assay: Study 1: serum PTH, ionized Ca++, total Ca++ and phosphorus in the 5/6 NX rat model; type: in vivo; details: for decrease in PTH: Day 0 vs. Day 13
# Experimental: Study 1: The purpose of the study was to compare the effects of Example 1 on serum PTH, ionized Ca++, total Ca++ and phosphorus in the 5/6 NX rat model.
# Methods: 5/6 NX rats were fed a normal diet (Teklad 8640; 0.9% Phos. and 1.1% Ca++) for 4 weeks prior to study at 6 weeks uremia, and were maintained on this diet for the duration of the study. 5/6 NX rats were treated with vehicle and 10, 30 or 100 μg/kg of A-Example 1. Rats were dosed i.p. 3×/week for 2 weeks. Blood was collected on Days 0 and 13 for determination of concentrations of PTH, ionized Ca++, total Ca++ and phosphorus.
# [3] = tested on: 5/6 nephrectomized rats; assay: Aortic Calcification in Uremic Rats; type: in vivo, rat; details: 5/6 NX rats, at <100 μg/kg, i.p. 3 times per week for 41 Days
# Experimental: 5/6 nephrectomized rats: Male Sprague-Dawley, 5/6 NX rats (˜200 g) were obtained from Charles River. The nephrectomy was performed using a standard two-step surgical ablation procedure. Beginning approximately 2 weeks post-nephrectomy, rats were maintained on a hyperphosphatemia-inducing diet (0.9% phosphorus and 0.6% calcium) for the duration of the study to induce secondary hyperparathyroidism (SHPT). After four weeks on the special diet, rats received vehicle (5% ethanol/95% propylene glycol; 0.4 mL/kg; i.p.) or test agent 3 times per week for 41 Days. On Days 0, 13, and 41 blood was collected (24 hours post-dose).
# To minimize bias induced by variance in the disease state, 5/6 NX rats were assessed after 4 weeks of high phosphorus diet (prior to treatment) and the following inclusion/exclusion criteria were applied to the rats for study: • Serum creatinine=0.8-2.0 mg/dL (sham controls=0.43±0.01 mg/dL; n=20) • Exclude: serum calcium≦8.5 mg/dL (sham controls=10.05±0.05 mg/dL; n=20) • Exclude: serum phosphorus>12 mg/dL (sham controls=7.09±0.12 mg/dL; n=20) • Exclude: iPTH<400 pg/mL (sham controls=430±33 pg/mL; n=20)
# Measurement of PTH and serum mineral levels: Serum PTH was measured using a rat intact PTH ELISA kit (ALPCO/lmmutopics, Inc., Windham, N.H.). Serum calcium, phosphorus, creatinine and BUN concentrations were measured using an Abbott Aeroset® (Abbott, Abbott Park, Ill.). […]
# [4] = tested on: 5/6 NX uremic rats; assay: Study 2: left ventricular hypertrophy (LVH) in 5/6 NX uremic rats; type: in vivo, rat; details: 1, 10 and 100 μg/kg, 3×/wk for 6 wks
# Experimental: Study 2: To determine if treatment with Example 1 (1, 10 & 100 μg/kg) reduces left ventricular hypertrophy (LVH) in 5/6 NX uremic rats.
# Methods: Previous studies have shown that the 5/6 NX rat is hypertensive and presents with left ventricular hypertrophy. Therefore, 5/6 NX rats were received from Charles River at 2 weeks uremia and fed TD04151 (0.6% Ca and 0.9 % P) 4 weeks prior to study. 5/6 NX rats were treated with Example 1 (1, 10 & 100 μg/kg) or vehicle (95% PG/5% EtOH) 3×/week for six weeks. On Days 0, 13 and 41 blood was drawn (24 hours post-dose). At the end of the six week treatment period, rats were anesthetized with isoflurane and echocardiography was performed. Left ventricular mass was determined according to the American Society of Echocardiography recommendations using the cube method. After euthanasia, direct measurements of left ventricular weight were obtained. Note: Vehicle treated SHAM and 5/6 NX rats (3×/week for six weeks) from previous studies were included in this study for comparison purposes. All values are mean±SEM. Data was analyzed using ANOVA and where noted t-test. * Indicates p<0.05 compared to SHAM.
# [5] = 5/6 NX rats, 100 μg/kg i.p. 3×/week for 2 weeks
smiles,measurement,setting,value
"C=C1[C@H](O)CC(=C/C=C2\CCC[C@]3(C)[C@@H]([C@H](C)COC(=O)C(C)(C)C)CC[C@@H]23)C[C@H]1O [Example 1, (2S)-2-[(1R,3R,7E, 17β)-1,3-dihydroxy-2-methylene-9,10-secoestra-5,7-dien-17-yl]propyl pivalate]",pEC50,[1],8.72
same,decrease in PTH,"[2]; 5/6 NX rats, 30 μg/kg i.p. 3×/week for 2 weeks",26%
same,ionized Ca++,[2]; [5],elevated
same,total Ca++,[2]; [5],elevated
same,decrease in PTH,[2]; [5],78%
same,serum phosphorus levels,"[2]; 5/6 NX rats, 10, 30 or 100 μg/kg i.p. 3×/week for 2 weeks",did not affect
same,effect on aortic calcification,[3],did not have an effect
same,exacerbation of LVH compared to controls,[4],no exacerbation
